Data as given in patent US8163804B2 (priority 2005, dated 2012).
Read-outs that look alike come from different tables or passages of the source.

Assays:
[1] = tested on: 2-spotted Spider Mite (Tetranychus urticae); test: Insecticidal test on 2-spotted spider mite, kidney bean leaf disc with eggs, hatchability of larvae after 6 days; format: in vivo; details: 6 days after spraying
Method: Insecticidal Test on 2-spotted Spider Mite (Tetranychus urticae)
A plastic cup having a diameter of 8 cm was filled with water and covered by a lid with a hole having a diameter of 1 cm. Absorbent cotton was put on the top of the lid and dropped into water from the lid such that the absorbent cotton was always in a wet state due to a capillary phenomenon. A leaf disc having a diameter of 2 cm was prepared with primary leaves of kidney beans (cultivar: Green top) and placed on the aforementioned absorbent cotton. 4 adult female insects of Tetranychus urticae were inoculated thereon. Next day, the adult female insects were removed, and then the number of insect egg was examined. A liquid chemical which was prepared to the prescribed concentration was sprayed by using a vertical sprayer. After spraying, the resulting cup was allowed to stand in an isothermal chamber maintained at 25 degree centigrade. After 6 days from spraying, the number of hatched larvae that survived on the leaf disc was examined and the hatchability of larvae was calculated (two replications of one concentration per chemical).

[2] = tested on: Tiger Moth (Trichoplusia ni); test: Insecticidal test on tiger moth, cabbage leaf dip, mortality after 6 days; format: in vivo; details: 6 days after treatment
Method: Insecticidal Test on Tiger Moth (Trichoplusia ni)
Cut leaves of cabbages (cultivar: shiki-kaku) were immersed in a liquid chemical which was diluted and prepared to the prescribed concentration for 30 seconds, air-dried, and then put into a plastic vessel having a diameter of 9 cm. Each of 10 second-stage insects of Trichoplusia ni was inoculated and the resulting vessel was allowed to stand in an isothermal chamber maintained at 25 degree centigrade. After 6 days from the treatment, the number of surviving insects was examined and the mortality was calculated (two replications of 10 insects per plot).

[3] = tested on: Green Peach Aphid (Myzus persicae); format: in vivo
[4] = tested on: Resistant Cotton Melon Aphid (Aphis gossypii); format: in vivo
[5] = tested on: Rice Blast (Pyricularia oryzae); format: in vivo
[6] = tested on: Rice Striped Stem Borer (Chilo suppressalis)
[7] = tested on: Small Brown Planthopper (Laodelphax striatellus); test: Insecticidal test on small brown planthopper, sprayed rice seedlings, mortality after 6 days; format: in vivo
Method: Insecticidal Test on Small Brown Planthopper (Laodelphax striatellus)
A liquid chemical which was diluted and prepared to the prescribed concentration was sprayed on rice seedlings (cultivar: koshihikari), air-dried, and then 10 three-stage insects of Laodelphax striatellus were put into a glass test tube having a diameter of 3 cm and a height of 10 cm along with the seedlings. The test tube was cotton plugged. After 6 days from the treatment, the number of surviving insects was examined and the mortality was calculated (two replications of 10 insects per plot).

[8] = tested on: Common Straight Swift Butterfly (Parnara guttata); test: Control test on common straight swift butterfly of paddy rice, powder spray, number of insects after 20 days (Test Example 9); format: in vivo; details: 20 days after spraying
Text: (§1) Control Test on Common Straight Swift Butterfly (Parnara guttata) and Sheath Blight (Rhizoctonia solani) of Paddy Rice
(§2) A powder of a prescribed amount was sprayed on rice (cultivar: koshihikari) after 70 days from the transplantation (middle of May) Leaves on which Parnara guttata was parasitic before spraying were eliminated. After 20 days from spraying, the number of insects was examined for 100 stumps in each plot. Furthermore, 7 days before spraying, Rhizoctonia solani cultured on a bran medium was inoculated into the base of the plant. After 30 days from spraying, the number of infected stumps was examined for 100 stumps in each plot and the rate of infected stumps was calculated. In the Table, gai represents the amount of active ingredients (g).

[9] = tested on: Sheath Blight (Rhizoctonia solani); test: Control test on sheath blight of paddy rice, powder spray, rate of infected stumps after 30 days; format: in vivo; details: 30 days after spraying
Text: as §1, §2

[10] = tested on: Small Brown Planthopper (Laodelphax striatellus); test: Control test on small brown planthopper, nursery box application of paddy rice, number of parasitic insects after 40 and 60 days; format: in vivo
Method: (§3) Control Test on Small Brown Planthopper (Laodelphax striatellus) and Rice Leafroller (Cnaphalocrocis medinalis) on Nursery Box Application of Paddy Rice
(§4) Rice (cultivar: Nihonbare) cultured in a nursery box was treated with 50 g of a granule formulation per box, and then transplanted to the rice field. For the control effect against Laodelphax striatellus, the number of parasitic insects was examined for 30 stumps per plot after 40 days and 60 days from the transplantation. In addition, for the control effect against Cnaphalocrocis medinalis, the number of infected leaves was examined for 100 stumps per plot after 50 days from the transplantation, and the infected leaf rate was calculated. In the Table, gai represents the amount of active ingredients (g).

[11] = tested on: Rice Leafroller (Cnaphalocrocis medinalis); test: Control test on rice leafroller, nursery box application of paddy rice, infected leaf rate after 50 days; format: in vivo; details: 50 days after transplantation
Method: as §3, §4

[12] = 250 ppm, foliar spray on eggplant, 5 days after spraying
[13] = 250 ppm, foliar spray on cucumber, 5 days after spraying
[14] = 3 ppm, sprayed rice seedlings, 6 days after treatment
[15] = 3 ppm, foliar spray on eggplant, 5 days after spraying
[16] = 3 ppm, foliar spray on cucumber, 5 days after spraying
[17] = Laodelphax striatellus, 144 h, 25 ppm, sprayed rice seedlings, 6 days after treatment
[18] = 100 ppm, foliar spray on eggplant, 5 days after spraying
[19] = 100 ppm, foliar spray on cucumber, 5 days after spraying

Compound: CC(C)(C)c1ccc(CSc2cnn(C(C)(C)C)c(=O)c2Cl)cc1 [pyridaben]
- Hatchability of larvae (%) ([1]; 2 ppm): 48%

Compound: spinosad
- Mortality (%) ([2]; 0.1 ppm): 60%

Compound: CNC(=O)ON=C(C)SC [methomyl]
- Control rate (%) [3, 12]: 96%
- Control rate (%) [4, 13]: 10%

Compound: CCC(C)(C)C(=O)OC1=C(c2ccc(Cl)cc2Cl)C(=O)OC12CCCCC2 [spirodiclofen]
- Hatchability of larvae (%) ([1]; 3 ppm): 50%

Compound: C=CCOC1=NS(=O)(=O)c2ccccc21 [probenazole]
- Pyricularia oryzae Control value ([5]; 12 gai/box): 94
- Chilo suppressalis Mortality (%) ([6]; 12 gai/box): 5%

Compound: Cc1cc(C(F)(C(F)(F)F)C(F)(F)F)cc(C)c1NC(=O)c1cccc(N(C)C(=O)c2ccc(C#N)cc2)c1F [Compound 1217]
- Pyricularia oryzae Control value ([5]; in vivo): 7
- Mortality (%) ([2]; 0.5 ppm): 65%
- Hatchability of larvae (%) ([1]; 50 ppm): 74%
- Chilo suppressalis Mortality (%) ([6]; 5 gai/box): 90%
- Mortality (%) [7, 14]: 15%
- Control rate (%) [3, 15]: 21%
- Control rate (%) [4, 16]: 15%

Compound: CCOc1cc(C(C)(C)C)ccc1C1COC(c2c(F)cccc2F)=N1 (centres unmarked) [etoxazol]
- Hatchability of larvae (%) ([1]; 0.1 ppm): 33%

Compound: CN/C(=N/CC1CCOC1)N[N+](=O)[O-] (centres unmarked) [dinotefuran]
- mortality at 3 ppm ([2]; Trichoplusia, foliar, 144 h, 3 ppm): 40%
- mortality at 5 ppm ([7]; Laodelphax striatellus, 144 h, 5 ppm, sprayed rice seedlings, 6 days after treatment): 95%
- Control rate (%) ([3]; in vivo): 99%
- Control rate (%) ([4]; in vivo): 98%

Compound: O=C(Nc1ccccc1)N(Cc1ccc(Cl)cc1)C1CCCC1 [pencycuron]
- Number of insects (number/100 stumps) ([8]; 60 gai/10a): 159 number/100 stumps
- Rate of infected stumps (%) ([9]; 60 gai/10a): 1%

Compound: N#Cc1nn(-c2c(Cl)cc(C(F)(F)F)cc2Cl)c(N)c1[S+]([O-])C(F)(F)F (centres unmarked) [fipronil]
- mortality at 0.5 ppm ([2]; Trichoplusia, foliar, 144 h, 0.5 ppm): 55%

Compound: CC(C)OC(=O)C(C(=O)OC(C)C)=C1SCCS1 [Isoprothiolane]
- Pyricularia oryzae Control value ([5]; 6 gai/box): 92
- Chilo suppressalis Mortality (%) ([6]; 6 gai/box): 0%

Compound: CC1=NNC(=O)N(/N=C/c2cccnc2)C1 [pymetrozine]
- mortality at 25 ppm [7, 17]: 95%
- Control rate (%) [3, 18]: 96%
- Control rate (%) [4, 19]: 95%

Compound: CC[S+]([O-])c1c(C#N)nn(-c2c(Cl)cc(C(F)(F)F)cc2Cl)c1N (centres unmarked) [ethiprole]
- mortality at 25 ppm [7, 17]: 90%
- Control rate (%) [3, 18]: 98%
- Control rate (%) [4, 19]: 96%

Compound: Cc1cc(C(F)(C(F)(F)F)C(F)(F)F)cc(C)c1NC(=O)c1cccc(N(C)C(=O)c2cccnc2)c1F [Compound 1244]
- Laodelphax striatellus Number of parasitic insects/30 stumps ([10]; 5 gai/box, 40 days): 72 insects/30 stumps
- Laodelphax striatellus Number of parasitic insects/30 stumps ([10]; 5 gai/box, 60 days): 132 insects/30 stumps
- Cnaphalocrocis medinalis Infected leaf rate (%) ([11]; 5 gai/box): 0.25%

Compound: CNC(=O)/C(=N/OC)c1ccccc1CO/N=C(C)/C(=N/OC)C(/C)=N/OC [orysastrobin]
- Pyricularia oryzae Control value ([5]; 3.5 gai/box): 93
- Chilo suppressalis Mortality (%) ([6]; 3.5 gai/box): 5%

Compound: Cc1cccc2sc3nncn3c12 [tricyclazole]
- Pyricularia oryzae Control value ([5]; 2 gai/box): 95
- Chilo suppressalis Mortality (%) ([6]; in vivo): 5%

Compound: CCCCCCCCCCCCC1=C(OC(C)=O)C(=O)c2ccccc2C1=O [acequinocyl]
- Hatchability of larvae (%) ([1]; 5 ppm): 29%

Compound: CN(C(=O)c1ccccc1)c1cccc(C(=O)Nc2c(Br)cc(SC(F)(F)C(F)(F)C(F)(F)F)cc2Br)c1 [Compound 1126]
- Mortality (%) ([2]; 0.5 ppm): 70%
- Hatchability of larvae (%) ([1]; 50 ppm): 73%
- Mortality (%) [7, 14]: 10%
- Control rate (%) [3, 15]: 0%
- Control rate (%) [4, 16]: 3%

Compound: CCOC(=O)CCN(SN(C)C(=O)Oc1cccc2c1OC(C)(C)C2)C(C)C [benfuracarb]
- Laodelphax striatellus Number of parasitic insects/30 stumps ([10]; 2.5 gai/box, 40 days): 12 insects/30 stumps
- Laodelphax striatellus Number of parasitic insects/30 stumps ([10]; 2.5 gai/box, 60 days): 31 insects/30 stumps
- Cnaphalocrocis medinalis Infected leaf rate (%) ([11]; 2.5 gai/box): 1.28%

Compound: C[C@@H](NC(=O)C(C#N)C(C)(C)C)c1ccc(Cl)cc1Cl (some centres unmarked) [diclocymet]
- Pyricularia oryzae Control value ([5]; 1.5 gai/box): 95
- Chilo suppressalis Mortality (%) ([6]; 1.5 gai/box): 0%

Compound: Cc1c(Cl)cc(-c2ccc(=O)[nH]n2)cc1Cl [diclomezine]
- Number of insects (number/100 stumps) ([8]; 48 gai/10a): 167 number/100 stumps
- Rate of infected stumps (%) ([9]; 48 gai/10a): 3%

Compound: COP(=O)(NC(C)=O)SC (centres unmarked) [acephate]
- Control rate (%) [3, 12]: 97%
- Control rate (%) [4, 13]: 0%

Compound: CC(C)([CH2][Sn]([CH2]C(C)(C)c1ccccc1)([CH2]C(C)(C)c1ccccc1)[O][Sn]([CH2]C(C)(C)c1ccccc1)([CH2]C(C)(C)c1ccccc1)[CH2]C(C)(C)c1ccccc1)c1ccccc1 [fenbutatin oxide]
- Hatchability of larvae (%) ([1]; 25 ppm): 42%

Compound: CN(C(=O)c1cccc(NC(=O)c2ccccc2)c1)c1c(Br)cc(SC(F)(F)C(F)(F)C(F)(F)F)cc1Br [Compound 1480]
- Mortality (%) ([2]; 0.5 ppm): 75%
- Hatchability of larvae (%) ([1]; 50 ppm): 85%
- Mortality (%) [7, 14]: 10%
- Control rate (%) [3, 15]: 7%
- Control rate (%) [4, 16]: 3%

Compound: CCOc1ccc(C(C)(C)COCc2cccc(Oc3ccccc3)c2)cc1 [ethofenprox]
- Mortality (%) ([2]; 3 ppm): 45%
- Mortality (%) ([7]; 25 ppm, sprayed rice seedlings, 6 days after treatment): 95%
- Control rate (%) [3, 18]: 98%
- Control rate (%) [4, 19]: 75%

Compound: CN(C(=O)c1ccccc1F)c1cccc(C(=O)N(C)c2c(Br)cc(SC(F)(F)C(F)(F)C(F)(F)F)cc2Br)c1 [Compound 1617]
- Mortality (%) ([2]; 0.5 ppm): 75%
- Hatchability of larvae (%) ([1]; 50 ppm): 78%
- Mortality (%) [7, 14]: 5%
- Control rate (%) [3, 15]: 0%
- Control rate (%) [4, 16]: 5%

Compound: N#CCNC(=O)c1cnccc1C(F)(F)F [flonicamid]
- Mortality (%) ([7]; 20 ppm, sprayed rice seedlings, 6 days after treatment): 95%
- Control rate (%) [3, 18]: 97%
- Control rate (%) [4, 19]: 97%

Compound: Cc1cc(C(F)(C(F)(F)F)C(F)(F)F)cc(C)c1NC(=O)c1cccc(N(C)C(=O)c2cccc(F)c2)c1F [Compound 1219]
- Mortality (%) ([2]; 0.5 ppm): 65%
- Hatchability of larvae (%) ([1]; 50 ppm): 80%
- Mortality (%) [7, 14]: 10%
- Control rate (%) [3, 15]: 17%
- Control rate (%) [4, 16]: 15%

Compound: COc1ccc(-c2ccccc2)cc1NNC(=O)OC(C)C [bifenazate]
- Hatchability of larvae (%) ([1]; 5 ppm): 60%

Compound: Cc1cc(C(F)(C(F)(F)F)C(F)(F)F)cc(C)c1NC(=O)c1cccc(NC(=O)c2cccnc2Cl)c1 [Compound No. 106, N-(2,6-dimethyl-4-heptafluoroisopropyl)phenyl 3-[(2-chloropyridin-3-yl)carbonylamino]benzamide]
- Pyricularia oryzae Control value ([5]; in vivo): 5
- Chilo suppressalis Mortality (%) ([6]; 5 gai/box): 90%

Compound: CC(C)N1C(=O)N(c2ccccc2)CS/C1=N\C(C)(C)C [buprofezin]
- mortality at 25 ppm [7, 17]: 95%

Compound: COP(=S)(OC)Oc1ccc([N+](=O)[O-])c(C)c1 [fenitrothion]
- mortality at 100 ppm ([7]; Laodelphax striatellus, 144 h): 85%

Compound: CC(C)Oc1cccc(NC(=O)c2ccccc2C(F)(F)F)c1 [flutolanil]
- Number of insects (number/100 stumps) ([8]; 80 gai/10a): 153 number/100 stumps
- Rate of infected stumps (%) ([9]; 80 gai/10a): 2%

Compound: Cc1nn(C)c(Cl)c1C(=O)Nc1cccc2c1C(C)OC2(C)C (centres unmarked) [furametpyr]
- Number of insects (number/100 stumps) ([8]; 20 gai/10a): 161 number/100 stumps
- Rate of infected stumps (%) ([9]; 20 gai/10a): 2%

Compound: CCOc1ccc([Si](C)(C)CCCc2ccc(F)c(Oc3ccccc3)c2)cc1 [silafluofen]
- mortality at 25 ppm [7, 17]: 95%

Compound: milbemectin
- Hatchability of larvae (%) ([1]; 5 ppm): 18%
